# Experimental data reported in US20100298141A1, “SUBSTITUTED PYRIDINE N-OXIDE HERBICIDES” (E. I. DU PONT DE NEMOURS AND COMPANY, priority 2007, published 2010).
# Assays:
# annual bluegrass = assay: Test F preemergence test; type: in vivo, Poa annua; settings: scale 0 to 100
# Source text: (§1) Seeds of plant species selected from bermudagrass (Cynodon dactylon), Surinam grass (Brachiaria decumbens), large crabgrass (Digitaria sanguinalis), green foxtail (Setaria viridis), goosegrass (Eleusine indica), johnsongrass (Sorghum halepense), kochia (Kochia scoparia), pitted morningglory (Ipomoea lacunosa), purple nutsedge (Cyperus rotundus), common ragweed (Ambrosia elation), mustard (Brassica nigra), guineagrass (Panicum maximum), […] (Paspalum dilatatum), barnyardgrass (Echinochloa crus-galli), southern sandbur (Cenchrus echinatus), common sowthistle (Sonchus oleraceous), prickly […] spinosa), Italian ryegrass (Lolium multiflorum), common purslane (Portulaca oleracea), broadleaf signalgrass (Brachiaria platyphylla), common groundsel (Senecio vulgaris), common chickweed (Stellaria media), Virginia dayflower (Commelina virginica), annual bluegrass (Poa annua), naked crabgrass (Digitaria nuda), […] cochinchinensis), quackgrass (Elytrigia repens), Canada horseweed (Conyza canadensis), field bindweed (Convolvulus arvensis), […] (Bidens bipinnata), common mallow (Malva sylvestris), Russian thistle (Salsola kali), and sugarcane (Saccharum officinarum) were planted and treated preemergence with test chemicals formulated in a non-phytotoxic solvent mixture which included a surfactant. At a different time, sugarcane was treated with postemergence applications of some of the test chemicals formulated in the same manner. Plants were approximately 3- to 4-leaf stage for the postemergence treatments. Treated plants and controls were maintained in a greenhouse for 14 to 21 days, after which time all species were compared to controls and visually evaluated. […] A dash (-) response means no test result.
# broadleaf signalgrass = assay: Test F preemergence test; type: in vivo, Brachiaria platyphylla; settings: scale 0 to 100
# Source text: as §1
# rice = assay: Test C flooded paddy test; type: in vivo, Oryza sativa; settings: Flood
# Summary of the method: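 Ratings were visual and made relative to untreated controls after 13 to 15 greenhouse days.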
# bermudagrass = assay: Test F preemergence test; type: in vivo, Cynodon dactylon; settings: scale 0 to 100
# Source text: as §1
# common ragweed = assay: Test F preemergence test; type: in vivo, Ambrosia elation; settings: scale 0 to 100
# Source text: as §1
# kochia = assay: Test F preemergence test; type: in vivo, Kochia scoparia; settings: scale 0 to 100
# Source text: as §1
# large crabgrass = assay: Test F preemergence test; type: in vivo, Digitaria sanguinalis; settings: scale 0 to 100
# Source text: as §1
# johnsongrass = assay: Test F preemergence test; type: in vivo, Sorghum halepense; settings: scale 0 to 100
# Source text: as §1
# Surinam grass = assay: Test F preemergence test; type: in vivo, Brachiaria decumbens; settings: scale 0 to 100; for Plant response rating, Surinam Grass: Preemergence
# Source text: as §1
# goosegrass = assay: Test F preemergence test; type: in vivo, Eleusine indica; settings: scale 0 to 100
# Source text: as §1
# morningglory = assay: Test C pre-/postemergence test; type: in vivo, Ipomoea coccinea
# Summary of the method: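 Compounds in a non-phytotoxic solvent with surfactant applied preemergence to seeded pots and, at the same time, postemergence to plants 2–18 cm tall (1- to 4-leaf stage). Paddy tests: pots flooded to 3 cm, compound applied into the water, depth held throughout.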
# purple nutsedge = assay: Test F preemergence test; type: in vivo, Cyperus rotundus; settings: scale 0 to 100
# Source text: as §1
# Virginia dayflower = assay: Test F preemergence test; type: in vivo, Commelina virginica; settings: scale 0 to 100
# Source text: as §1
# naked crabgrass = assay: Test F preemergence test; type: in vivo, Digitaria nuda; settings: scale 0 to 100
# Source text: as §1
# Italian ryegrass = assay: Test F preemergence test; type: in vivo, Lolium multiflorum; settings: scale 0 to 100; for Plant response rating, Ryegrass, Italian: Preemergence
# Source text: as §1
compound,measurement,setting,value
Cc1cc([S+]([O-])Cc2c(C(F)(F)F)nn(C)c2OCC(F)(F)F)[n+]([O-])cc1Cl (centres unmarked) [Compound 70],"Plant response rating, Bluegrass","annual bluegrass; 16 g ai/ha, preemergence",65
same,Bluegrass plant response rating,"annual bluegrass; 62 g ai/ha, Preemergence",95
same,Bluegrass plant response rating,"annual bluegrass; 125 g ai/ha, preemergence",100
same,"Plant response rating, Bluegrass","annual bluegrass; Preemergence, 31 g ai/ha",75
same,Signalgrass plant response rating,"broadleaf signalgrass; 125 g ai/ha, preemergence",90
same,"Plant response rating, Signalgrass","broadleaf signalgrass; Preemergence, 62 g ai/ha",90
same,"Plant response rating, Rice","rice; 62 g ai/ha, scale 0 to 100 (0 no effect, 100 complete control)",45
same,"Plant response rating, Rice","rice; 250 g ai/ha, scale 0 to 100, 0 no effect, 100 complete control, 13 to 15 days",90
same,"Plant response rating, Bermudagrass","bermudagrass; 16 g ai/ha, preemergence",40
same,Bermudagrass plant response rating,"bermudagrass; 62 g ai/ha, Preemergence",98
same,Bermudagrass plant response rating,"bermudagrass; 125 g ai/ha, preemergence",100
same,"Plant response rating, Bermudagrass","bermudagrass; Preemergence, 31 g ai/ha",80
same,"Plant response rating, Ragweed","common ragweed; 16 g ai/ha, preemergence",60
same,"Plant response rating, Ragweed","common ragweed; Preemergence, 62 g ai/ha",80
same,"Plant response rating, Ragweed","common ragweed; Preemergence, 31 g ai/ha",60
same,"Plant response rating, Kochia","kochia; 16 g ai/ha, preemergence",95
same,Kochia plant response rating,"kochia; 62 g ai/ha, Preemergence",100
same,Kochia plant response rating,"kochia; 125 g ai/ha, preemergence",100
same,"Plant response rating, Kochia","kochia; Preemergence, 31 g ai/ha",95
same,"Plant response rating, Crabgrass, Large","large crabgrass; 16 g ai/ha, preemergence",35
same,"Crabgrass, Large plant response rating","large crabgrass; 62 g ai/ha, Preemergence",70
same,"Crabgrass, Large plant response rating","large crabgrass; 125 g ai/ha, preemergence",98
same,"Plant response rating, Crabgrass, Large","large crabgrass; Preemergence, 31 g ai/ha",50
same,"Plant response rating, Johnsongrass","johnsongrass; 16 g ai/ha, preemergence",90
same,Johnsongrass plant response rating,"johnsongrass; 62 g ai/ha, Preemergence",100
same,Johnsongrass plant response rating,"johnsongrass; 125 g ai/ha, preemergence",100
same,"Plant response rating, Johnsongrass","johnsongrass; Preemergence, 31 g ai/ha",90
same,Surinam Grass plant response rating,"Surinam grass; 125 g ai/ha, preemergence",100
same,"Plant response rating, Surinam Grass",Surinam grass; 62 g ai/ha,98
same,"Plant response rating, Surinam Grass",Surinam grass; 31 g ai/ha,40
same,"Plant response rating, Goosegrass","goosegrass; 16 g ai/ha, preemergence",60
same,Goosegrass plant response rating,"goosegrass; 62 g ai/ha, Preemergence",80
same,Goosegrass plant response rating,"goosegrass; 125 g ai/ha, preemergence",100
same,"Plant response rating, Goosegrass","goosegrass; Preemergence, 31 g ai/ha",80
same,Morningglory plant response rating,"morningglory; 62 g ai/ha, Preemergence, scale 0 to 100",80
same,Morningglory plant response rating,"morningglory; 125 g ai/ha, preemergence, scale 0 (no effect) to 100 (complete control)",100
same,"Plant response rating, Morningglory","morningglory; Preemergence, 31 g ai/ha, scale 0 to 100 (0 no effect, 100 complete control)",0
same,Morningglory plant response rating,"morningglory; preemergence, 250 g ai/ha, scale 0 (no effect) to 100 (complete control)",100
same,"Plant response rating, Purple Nutsedge","purple nutsedge; 16 g ai/ha, preemergence",0
same,Purple Nutsedge plant response rating,"purple nutsedge; 62 g ai/ha, Preemergence",20
same,Purple Nutsedge plant response rating,"purple nutsedge; 125 g ai/ha, preemergence",40
same,"Plant response rating, Purple Nutsedge","purple nutsedge; Preemergence, 31 g ai/ha",15
same,"Plant response rating, Dayflower","Virginia dayflower; 16 g ai/ha, preemergence",90
same,Dayflower plant response rating,"Virginia dayflower; 62 g ai/ha, Preemergence",100
same,Dayflower plant response rating,"Virginia dayflower; 125 g ai/ha, preemergence",100
same,"Plant response rating, Dayflower","Virginia dayflower; Preemergence, 31 g ai/ha",100
same,"Plant response rating, Crabgrass, Naked","naked crabgrass; 16 g ai/ha, preemergence",90
same,"Crabgrass, Naked plant response rating","naked crabgrass; 62 g ai/ha, Preemergence",100
same,"Crabgrass, Naked plant response rating","naked crabgrass; 125 g ai/ha, preemergence",100
same,"Plant response rating, Crabgrass, Naked","naked crabgrass; Preemergence, 31 g ai/ha",90
same,"Ryegrass, Italian plant response rating","Italian ryegrass; 125 g ai/ha, preemergence",100
same,"Plant response rating, Ryegrass, Italian",Italian ryegrass; 62 g ai/ha,100
same,"Plant response rating, Ryegrass, Italian",Italian ryegrass; 31 g ai/ha,75
